The record followed here is ChEMBL document CHEMBL1795295, “Synthesis and antimycobacterial activity of highly functionalized tetrahydro-4(1H)-pyridinones” (2011).

The structures appear in SMILES notation. In brackets after ≈: the same amount, converted by molar mass.

The subject of the assay is Mycobacterium tuberculosis. As to the kind of experiment: Antimycobacterial activity against Mycobacterium tuberculosis H37Rv by agar dilution method. The assay is classed as functional. Background: Agar dilution tests growth on a series of plates holding different concentrations.
As to `O=C1C[C@H](c2ccc(Cl)cc2)N[C@H](c2ccc(Cl)cc2)[C@H]1c1ccccc1`, it took 31.5 µM (≈ 12.5 µg/mL) to inhibit growth (MIC). This counts as double-digit micromolar. To `Cc1ccc([C@H]2N[C@@H](c3ccc(C)cc3)CC(=O)[C@@H]2c2ccccc2)cc1` belongs 70.3 µM (≈ 25 µg/mL); to `O=C1C[C@H](c2ccc(F)cc2)N[C@H](c2ccc(F)cc2)[C@H]1c1ccccc1`, 34.4 µM (≈ 12.5 µg/mL). `O=C1C[C@H](c2ccccc2Cl)N[C@H](c2ccccc2Cl)[C@H]1c1ccccc1`: inhibition of growth (MIC) required 31.5 µM (≈ 12.5 µg/mL). This MIC and that of the compound before are within 1.5-fold of each other. In the case of `Cc1ccccc1[C@H]1N[C@@H](c2ccccc2C)CC(=O)[C@@H]1c1ccccc1` it was 70.3 µM (≈ 25 µg/mL); in that of `COc1ccccc1[C@H]1N[C@@H](c2ccccc2OC)CC(=O)[C@@H]1c1ccccc1`, 64.5 µM (≈ 25 µg/mL); in that of `O=C1[C@H](c2ccccc2)[C@@H](c2ccccc2)N[C@@H](c2ccccc2)[C@@H]1c1ccccc1`, 62 µM (≈ 25 µg/mL). To `O=C1[C@H](c2ccccc2)[C@@H](c2ccc(Cl)cc2)N[C@@H](c2ccc(Cl)cc2)[C@@H]1c1ccccc1` belongs 13.2 µM (≈ 6.25 µg/mL); to `Cc1ccc([C@H]2N[C@@H](c3ccc(C)cc3)[C@H](c3ccccc3)C(=O)[C@@H]2c2ccccc2)cc1`, 29 µM (≈ 12.5 µg/mL). In the case of `COc1ccc([C@H]2N[C@@H](c3ccc(OC)cc3)[C@H](c3ccccc3)C(=O)[C@@H]2c2ccccc2)cc1` it was 27 µM (≈ 12.5 µg/mL); in that of `O=C1[C@H](c2ccccc2)[C@@H](c2ccc(F)cc2)N[C@@H](c2ccc(F)cc2)[C@@H]1c1ccccc1`, 7.12 µM (≈ 3.13 µg/mL).

`O=C1[C@H](c2ccccc2)[C@@H](c2ccccc2Cl)N[C@@H](c2ccccc2Cl)[C@@H]1c1ccccc1` showed an MIC of 13.2 µM (≈ 6.25 µg/mL). Regarding `Cc1ccccc1[C@H]1N[C@@H](c2ccccc2C)[C@H](c2ccccc2)C(=O)[C@@H]1c1ccccc1`, the minimal inhibitory concentration (MIC) is 29 µM (≈ 12.5 µg/mL). In turn, `COc1ccccc1[C@H]1N[C@@H](c2ccccc2OC)[C@H](c2ccccc2)C(=O)[C@@H]1c1ccccc1` had a minimal inhibitory concentration (MIC) of 27 µM (≈ 12.5 µg/mL).

As for `O=NN1C(c2ccccc2)CC(=O)C(c2ccccc2)C1c1ccccc1` (stereo not drawn), the MIC stood at 17.5 µM (≈ 6.25 µg/mL). To `O=NN1C(c2ccc(Cl)cc2)CC(=O)C(c2ccccc2)C1c1ccc(Cl)cc1` (stereo not drawn) belongs 7.35 µM (≈ 3.13 µg/mL).

`Cc1ccc(C2CC(=O)C(c3ccccc3)C(c3ccc(C)cc3)N2N=O)cc1` (stereo not drawn): the minimum inhibitory concentration (MIC) was 8.14 µM (≈ 3.13 µg/mL). On to `O=NN1C(c2ccc(F)cc2)CC(=O)C(c2ccccc2)C1c1ccc(F)cc1` (stereo not drawn), for which the MIC came to 3.97 µM (≈ 1.56 µg/mL). To `Cc1ccccc1C1CC(=O)C(c2ccccc2)C(c2ccccc2C)N1N=O` (stereo not drawn) belongs 8.14 µM (≈ 3.13 µg/mL); to `O=NN1C(c2ccccc2)C(c2ccccc2)C(=O)C(c2ccccc2)C1c1ccccc1` (stereo not drawn), 14.4 µM (≈ 6.25 µg/mL); to `O=NN1C(c2ccc(Cl)cc2)C(c2ccccc2)C(=O)C(c2ccccc2)C1c1ccc(Cl)cc1` (stereo not drawn), 3.11 µM (≈ 1.56 µg/mL).

`Cc1ccc(C2C(c3ccccc3)C(=O)C(c3ccccc3)C(c3ccc(C)cc3)N2N=O)cc1` (stereo not drawn) gave an MIC of 6.79 µM (≈ 3.13 µg/mL).

For the compound `COc1ccc(C2C(c3ccccc3)C(=O)C(c3ccccc3)C(c3ccc(OC)cc3)N2N=O)cc1` (stereo not drawn), the MIC is 12.7 µM (≈ 6.25 µg/mL). The compound `O=NN1C(c2ccccc2Cl)C(c2ccccc2)C(=O)C(c2ccccc2)C1c1ccccc1Cl` (stereo not drawn) showed a minimum inhibitory concentration (MIC) of 3.11 µM (≈ 1.56 µg/mL). Against the preceding compound, the MIC is about 4.1-fold lower. To `Cc1ccccc1C1C(c2ccccc2)C(=O)C(c2ccccc2)C(c2ccccc2C)N1N=O` (stereo not drawn) belongs 6.79 µM (≈ 3.13 µg/mL); to `COc1ccccc1C1C(c2ccccc2)C(=O)C(c2ccccc2)C(c2ccccc2OC)N1N=O` (stereo not drawn), 6.35 µM (≈ 3.13 µg/mL); to `N#CN1C(c2ccccc2)CC(=O)C(c2ccccc2)C1c1ccccc1` (stereo not drawn), 70.9 µM (≈ 25 µg/mL).

The compound `N#CN1C(c2ccc(Cl)cc2)CC(=O)C(c2ccccc2)C1c1ccc(Cl)cc1` (stereo not drawn) had an MIC of 29.7 µM (≈ 12.5 µg/mL). On to `Cc1ccc(C2CC(=O)C(c3ccccc3)C(c3ccc(C)cc3)N2C#N)cc1` (stereo not drawn), for which inhibition of growth (MIC) required 65.7 µM (≈ 25 µg/mL). In the case of `COc1ccc(C2CC(=O)C(c3ccccc3)C(c3ccc(OC)cc3)N2C#N)cc1` (stereo not drawn) it was 30.3 µM (≈ 12.5 µg/mL); in that of `N#CN1C(c2ccc(F)cc2)CC(=O)C(c2ccccc2)C1c1ccc(F)cc1` (stereo not drawn), 16.1 µM (≈ 6.25 µg/mL).

In turn, `N#CN1C(c2ccccc2)C(c2ccccc2)C(=O)C(c2ccccc2)C1c1ccccc1` (stereo not drawn) yielded an MIC of 58.3 µM (≈ 25 µg/mL). To `N#CN1C(c2ccc(Cl)cc2)C(c2ccccc2)C(=O)C(c2ccccc2)C1c1ccc(Cl)cc1` (stereo not drawn) belongs 25.1 µM (≈ 12.5 µg/mL); to `N#CN1C(c2ccccc2Cl)C(c2ccccc2)C(=O)C(c2ccccc2)C1c1ccccc1Cl` (stereo not drawn), 12.6 µM (≈ 6.25 µg/mL); to `Cc1ccccc1C1C(c2ccccc2)C(=O)C(c2ccccc2)C(c2ccccc2C)N1C#N` (stereo not drawn), 27.4 µM (≈ 12.5 µg/mL). `CC[C@@H](CO)NCCN[C@@H](CC)CO` [ETHAMBUTOL] yielded a minimum inhibitory concentration (MIC) of 7.6 µM (≈ 1.55 µg/mL). `NNC(=O)c1ccncc1` [ISONIAZID]: the MIC amounted to 0.4 µM (≈ 0.0549 µg/mL). On to `NC(=O)c1cnccn1` [PYRAZINAMIDE], for which the minimal inhibitory concentration (MIC) stood at 50.8 µM (≈ 6.25 µg/mL).

The term MIC denotes the lowest concentration found to suppress growth. Read a low MIC as greater potency.
